Source: ChEMBL document CHEMBL2074342, “Kinetic analysis of rhodamines efflux mediated by the multidrug resistance protein (MRP1)” (Biophys J, 2003)

target: Multidrug resistance-associated protein 1 (Homo sapiens, UniProt P33527); assay: TP_TRANSPORTER: intracellular accumulation in MRP1-expressing GLC4/ADR cell; format: functional, cell-based; conditions: glc-4/adr
Sequence (P33527 whole entry): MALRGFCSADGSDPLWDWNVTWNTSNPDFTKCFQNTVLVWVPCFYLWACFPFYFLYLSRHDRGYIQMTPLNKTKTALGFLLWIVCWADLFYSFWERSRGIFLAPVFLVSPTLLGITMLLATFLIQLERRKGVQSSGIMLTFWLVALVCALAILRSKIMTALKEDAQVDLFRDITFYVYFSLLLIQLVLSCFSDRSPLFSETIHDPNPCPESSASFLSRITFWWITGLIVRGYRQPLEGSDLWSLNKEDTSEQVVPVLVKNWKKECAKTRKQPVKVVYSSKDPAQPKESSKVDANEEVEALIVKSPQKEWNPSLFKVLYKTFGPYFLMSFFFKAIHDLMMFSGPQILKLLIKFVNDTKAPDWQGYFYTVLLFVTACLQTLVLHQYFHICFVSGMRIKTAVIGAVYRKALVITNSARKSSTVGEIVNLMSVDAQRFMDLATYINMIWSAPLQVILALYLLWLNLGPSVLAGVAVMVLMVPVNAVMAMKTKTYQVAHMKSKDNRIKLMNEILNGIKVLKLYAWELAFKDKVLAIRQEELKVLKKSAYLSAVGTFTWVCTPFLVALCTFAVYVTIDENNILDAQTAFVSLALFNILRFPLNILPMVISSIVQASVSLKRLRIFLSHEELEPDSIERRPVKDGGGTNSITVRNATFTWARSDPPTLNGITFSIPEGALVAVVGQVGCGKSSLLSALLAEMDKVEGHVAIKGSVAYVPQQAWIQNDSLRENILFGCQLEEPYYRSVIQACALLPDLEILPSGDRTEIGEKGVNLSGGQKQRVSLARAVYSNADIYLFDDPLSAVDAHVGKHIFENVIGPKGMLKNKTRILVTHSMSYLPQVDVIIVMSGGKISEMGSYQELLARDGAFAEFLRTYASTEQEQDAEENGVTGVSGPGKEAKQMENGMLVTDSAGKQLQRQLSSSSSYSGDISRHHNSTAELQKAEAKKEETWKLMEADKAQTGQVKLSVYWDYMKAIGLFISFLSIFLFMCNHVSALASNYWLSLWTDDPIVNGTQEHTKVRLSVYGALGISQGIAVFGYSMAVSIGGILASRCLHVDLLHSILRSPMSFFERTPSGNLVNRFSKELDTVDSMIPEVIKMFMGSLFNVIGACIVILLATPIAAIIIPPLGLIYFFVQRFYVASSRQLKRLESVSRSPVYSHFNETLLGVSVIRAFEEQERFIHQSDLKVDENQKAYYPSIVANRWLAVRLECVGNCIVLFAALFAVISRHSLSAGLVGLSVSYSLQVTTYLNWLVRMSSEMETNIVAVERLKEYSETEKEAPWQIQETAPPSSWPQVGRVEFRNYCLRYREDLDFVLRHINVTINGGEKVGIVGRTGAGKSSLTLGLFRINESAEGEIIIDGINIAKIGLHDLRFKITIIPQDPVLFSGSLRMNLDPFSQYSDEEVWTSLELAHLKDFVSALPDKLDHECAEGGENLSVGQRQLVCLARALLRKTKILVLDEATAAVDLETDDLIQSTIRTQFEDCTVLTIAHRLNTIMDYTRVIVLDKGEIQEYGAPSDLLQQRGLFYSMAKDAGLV

| SMILES | Activity |
| --- | --- |
| CN(C)c1ccc2c(-c3ccccc3C(=O)[O-])c3ccc(N(C)C)cc3[o+]c2c1 [TETRAMETHYLRHODAMINE] | substrate [+] |
| CC/N=c1\cc2oc3cc(NCC)c(C)cc3c(-c3ccccc3C(=O)OCC)c-2cc1C.Cl [RHODAMINE 6G HYDROCHLORIDE] | substrate [+] |
| CCOC(=O)c1ccccc1-c1c2ccc(=[N+](C)C)cc-2oc2cc(N(C)C)ccc12 [RHODAMINE I] | substrate [+] |
| COC(=O)c1ccccc1-c1c2ccc(=[N+](C)C)cc-2oc2cc(N(C)C)ccc12 [RHODAMINE II] | substrate [+] |
